Laboratory results published in EPA's ToxValDB 9.5.

Tested on: Rattus norvegicus
Settings: oral
[1] = subchronic, gavage, M, Sprague-Dawley, Clinical Observation: Salivation + Hematology: NEUT increase + Histopathology: Forestomach-Erosion Forestomach-Cellular infiltration, …
[2] = short-term, duration: 28 days, gavage, M, Sprague-Dawley, Clinical Observation: Reddish urine Soft stool DiarrheaSpontaneous locomotion decrease, Incomplete eyelid opening + Functional Observational…
[3] = short-term, duration: 28 days, gavage, F, Wistar, Deaths + Clinical Observation: Thinly haired areas of skin Weakness Thin appearance Respiratory disorders Some resistance to dosing + Body …
[4] = short-term, duration: 28 days, gavage, M, Wistar, Deaths + Clinical Observation: Thinly haired areas of skin Weakness Thin appearance Respiratory disorders Some resistance to dosing + Body …
[5] = subchronic, gavage, M, Sprague-Dawley, Urinalysis: Round epithelial cell increase + Hematology: RBC decrease, HGB decrease, HCT decrease, RET increase, R + Blood Chemistry: a2-…
[6] = short-term, duration: 28 days, gavage, M, Sprague-Dawley, Clinical Observation: Salivation Dark green urinelocomotor activity decrease, Staining around nose and mouth + Functional Observational …
[7] = subchronic, gavage, M, Sprague-Dawley, Clinical Observation: Respiratory noise Irregular respiration Deep respiration R Soiled perigenital region R Oligo-stool R Hypothermia R + …

SMILES: CN1CCN(C)C1=O [1,3-Dimethyl-2-imidazolidinone]
- NOEL (subchronic, gavage, M, Sprague-Dawley, Body Weight Changes: Gain decrease(trend) + Blood Chemistry: TG increase, T-Cho increase(trend)TP decrease, R a1-glb decrease, R beta-glb …): 20 mg/kg-day

SMILES: C1CCC2=NCCCN2CC1 [1,8-Diazabicyclo[5.4.0]undec-7-ene]
- NOAEL [1]: 30 mg/kg-day
- NOEL [1]: 10 mg/kg-day

SMILES: Nc1c(Br)cc(Br)c2c1C(=O)c1ccccc1C2=O [1-Amino-2,4-dibromoanthraquinone]
- NOAEL [2]: < 200 mg/kg-day
- NOEL [2]: < 200 mg/kg-day
- NOEL (subchronic, duration: 13 weeks, diet, F, Fischer 344, Deaths + Clinical Observation: Lethargy Emaciation StaggeredHunched posture + Body Weight Changes: decrease + Food Consumption: decrease + …): < 170 mg/kg-day
- NOEL (subchronic, duration: 13 weeks, diet, M/F, Fischer 344, Deaths + Clinical Observation: Lethargy Emaciation StaggeredHunched posture + Body Weight Changes: decrease + Food Consumption: decrease + …): < 240 mg/kg-day

SMILES: CC(O)CCl (centres undefined) [1-Chloro-2-propanol]
- NOEL (chronic, duration: 14 weeks, water, M/F, Fischer 344, Body Weight Changes: decrease + Water Consumption: decrease + Urinalysis: Urine volume decrease, Specific gravity increase, Total protein …): < 7.36 mg/kg-day

SMILES: CCCCCCCCCCCCCCCCO [1-Hexadecanol]
- NOAEL [3]: 300 mg/kg-day
- NOEL [3]: 300 mg/kg-day
- NOAEL [4]: 300 mg/kg-day
- NOEL [4]: 100 mg/kg-day
- NOAEL (short-term, duration: 28 days, gavage, Sprague-Dawley): 1000 mg/kg-day
- NOAEL (subchronic, duration: 13 weeks, diet, F, Crl, Body Weight Changes: decrease2064 + Food Consumption: decrease2064 + Absolute Organ Weight: Brain2064 Heart LiverSpleen Gonad + Relative …): 875 mg/kg-day
- NOAEL (subchronic, duration: 13 weeks, diet, M, Crl, Body Weight Changes: decrease2064 + Food Consumption: decrease2064 + Absolute Organ Weight: Brain2064 Heart LiverSpleen Gonad + Relative …): 723 mg/kg-day

SMILES: C=CC/C=C/C/C=C/C/C=C/C [1-Propene, tetramer]
- NOAEL [5]: 40 mg/kg-day
- NOEL [5]: < 40 mg/kg-day

SMILES: C=CCCCCCCCCCCCC [1-Tetradecene]
- NOAEL (subchronic, gavage, M, Sprague-Dawley, Absolute Organ Weight: Liver increase + Relative Organ Weight: Liver increase + Histopathology: Liver-Hepatocyte cytoplasmic vacuolation): 100 mg/kg-day

SMILES: Cc1cc(C)c(C)c(O)c1 [2,3,5-Trimethylphenol]
- NOEL (subchronic, gavage, M, Sprague-Dawley, Clinical Observation: Soiled perigenitalia of urine LethargyAtaxia gait(transient after administration) + Body Weight Changes: decrease(…): 100 mg/kg-day

SMILES: Cl.Cl.Nc1ccc(O)c(N)c1 [2,4-Diaminophenol dihydrochloride]
- NOAEL [6]: 50 mg/kg-day
- NOEL [6]: < 50 mg/kg-day
- NOEL (subchronic, duration: 13 weeks, gavage, M/F, Fischer 344, Deaths + Body Weight Changes: decrease>50 + Absolute Organ Weight: Liver increase, Thymus decrease + Relative Organ Weight: Right kidney …): < 12 mg/kg-day

SMILES: Cc1ccc(S(=O)(=O)O)c(C)c1 [2,4-Dimethylbenzenesulfonic acid]
- LOEL [7]: 500 mg/kg-day
- NOEL [7]: 100 mg/kg-day

SMILES: CC(C)=CC=C(C)C [2,5-Dimethyl-2,4-hexadiene]
- NOEL (subchronic, gavage, M, Sprague-Dawley, Clinical Observation: Soiled peri-genital + Body Weight Changes: decrease + Food Consumption: decrease(day1-8) + Hematology: WBC increase, …): < 100 mg/kg-day

SMILES: C#CC(C)(C)O [2-Methyl-3-butyn-2-ol]
- NOAEL (short-term, duration: 28 days, gavage, M/F, BOB:WISW, Deaths + Clinical Observation: Sedation Narcosis Hypothermia + Body Weight Changes: decrease + Food Consumption: decrease + Hematology: WBC …): 50 mg/kg-day

SMILES: Sc1ccc2ccccc2c1 [2-Naphthalenethiol]
- NOEL (short-term, duration: 28 days, gavage, M/F, Sprague-Dawley, Functional Observational Battery: Landing foot splay decrease + Food Consumption: decrease + Water Consumption: increase + Urinalysis: …): 8 mg/kg-day

SMILES: Cc1cccc(C(C)(C)C)c1O [2-tert-Butyl-6-methylphenol]
- NOEL (subchronic, gavage, M, Sprague-Dawley, Hematology: Ret increase, PT increase, APTT increase + Blood Chemistry: GOT increase, GPT increasegamma-GTP increase, Cho increase + …): 8 mg/kg-day

SMILES: BrC(Br)c1ccccc1OCC1CO1 (centres undefined) [2-{[2-(Dibromomethyl)phenoxy]methyl}oxirane]
- NOEL (subchronic, gavage, M, Sprague-Dawley, Clinical Observation: Salivation (transient) + Absolute Organ Weight: Kidney increase + Relative Organ Weight: Kidney increase + …): 8 mg/kg-day

SMILES: Clc1ccc(N=Nc2ccc(Cl)c(Cl)c2)cc1Cl [3,3',4,4'-Tetrachloroazobenzene]
- NOEL (subchronic, gavage, M/F, Fischer 344, Body Weight Changes: decrease + Hematology: Ret increase Hct decrease, Hgb decrease, RBC decrease, Plt decrease, WBC decrease, Seg decrease…): < 0.1 mg/kg-day

SMILES: [O-][N+](=Nc1ccc(Cl)c(Cl)c1)c1ccc(Cl)c(Cl)c1 [3,3',4,4'-Tetrachloroazoxybenzene]
- NOEL (subchronic, gavage, M/F, Fischer 344, Deaths + Body Weight Changes: decrease af>>>10 + Hematology: Plt decrease Hct decrease, Hgb decrease, RBC decrease Ret increase, WBC …): < 0.1 mg/kg-day

SMILES: COCC(CCC(C)C)(COC)C(C)C [3,3-Bis(methoxymethyl)-2,6-dimethylheptane]
- NOEL (short-term, duration: 28 days, gavage, M/F, Clinical Observation: Salivation + Blood Chemistry: BIL increase, CL decrease + Absolute Organ Weight: Liver increase + Relative Organ …): 8 mg/kg-day

SMILES: CC(O[Si](C)(C)C(C)(C)C)C1CNC1=O (centres undefined) [3-(1-{[tert-Butyl(dimethyl)silyl]oxy}ethyl)azetidin-2-one]
- NOEL (short-term, duration: 28 days, gavage, M/F, Clinical Observation: Salivation + Blood Chemistry: TP increase, T-CHO increase, TG increase, Glu decrease, Ca increase + Organ Weight: …): 8 mg/kg-day

SMILES: Nc1cc(OCCOc2ccccc2)n[nH]1 [3-(2-Phenoxyethoxy)-1H-pyrazol-5-amine]
- NOEL (short-term, duration: 28 days, gavage, M/F, Deaths + Clinical Observation: Salivation Locomotor activity decrease, Sedation Urinary incontinence + Body Weight Changes: Body weight …): 40 mg/kg-day

SMILES: O=C(O)c1cccnc1Cl [3-Carboxy-2-chloropyridine]
- NOEL (short-term, duration: 28 days, gavage, M/F, Clinical Observation: Alopecia Salivation + Blood Chemistry: GOT increase, GPT increase, ALP increase, BUN increase + Necropsy: Liver - …): 10 mg/kg-day

SMILES: Nc1cccc(Cl)c1 [3-Chloroaniline]
- NOEL (subchronic, gavage, M/F, Fischer 344, Deaths + Clinical Observation: Bluish discoloration of the genital and footpad regions + Body Weight Changes: decrease + Hematology: Hct …): < 10 mg/kg-day

SMILES: Cl.Cl.Nc1ccc(Cc2ccc(N)cc2)cc1 [4,4'-Methylenedianiline dihydrochloride]
- NOEL (subchronic, duration: 13 weeks, water, M/F, Fischer 344, Body Weight Changes: decrease + Histopathology: Liver/bile duct- Hyperplasia Thyroid-Adenomatous goiter Thyroid-Follicullar-cell hyperplasia…): 30.4 mg/kg-day

SMILES: Nc1ccc(Cl)cc1[N+](=O)[O-] [4-Chloro-2-nitroaniline]
- NOEL (subchronic, gavage, M, Sprague-Dawley, Hematology: Hct decrease, Ret increase + Relative Organ Weight: Heat increase, Liver increase, Kidneys increase, Adrenals increase + …): 10 mg/kg-day

SMILES: COc1ccc(N)c([N+](=O)[O-])c1 [4-Methoxy-2-nitroaniline]
- NOEL (subchronic, gavage, M, Sprague-Dawley, Clinical Observation: Orangish urine Soiled fur Salivation + Body Weight Changes: decrease(trend) + Food Consumption: decrease + Absolute …): < 12.5 mg/kg-day

SMILES: Cc1ccc(O)c([N+](=O)[O-])c1 [4-Methyl-2-nitrophenol]
- NOAEL (short-term, duration: 28 days, gavage, F, Sprague-Dawley, Clinical Observation: Sedation Ptosis Salivation Reddish tear Soiled perineal region + Urinalysis: Yellow colored urine pH decrease + …): 60 mg/kg-day
- NOEL (short-term, duration: 28 days, gavage, M/F, Sprague-Dawley, Clinical Observation: Sedation Ptosis Salivation Reddish tear Soiled perineal region + Urinalysis: Yellow colored urine pH decrease + …): 60 mg/kg-day

SMILES: Cc1cnc[nH]1 [4-Methylimidazole]
- NOEL (subchronic, diet, M/F, Fischer 344, Deaths + Body Weight Changes: decrease + Hematology: Hct decrease, Hgb decrease, Ret decrease, Plt decrease, RBC decrease + Blood Chemistry…): < 60 mg/kg-day

SMILES: C=Cc1ccc(OC(C)(C)C)cc1 [4-tert-Butoxystyrene]
- NOEL (short-term, duration: 28 days, gavage, M/F, Deaths + Clinical Observation: Salivation + Body Weight Changes: Body weight gain decrease + Food Consumption: decrease + Urinalysis: Urine…): 20 mg/kg-day

SMILES: CC(C)(C)c1ccc(O)c(O)c1 [4-tert-Butylcatechol]
- NOEL (subchronic, diet, M/F, Fischer 344, Body Weight Changes: decrease + Food Consumption: decrease + Hematology: Hct decrease, Hgb decrease, RBC decrease + Blood Chemistry: ALT …): < 75 mg/kg-day

SMILES: Nc1ccc(O)c(C(=O)O)c1 [5-Aminosalicylic acid]
- NOAEL (chronic, duration: 91 days, gavage, F, Sprague-Dawley, Deaths + Urinalysis: Volume increase, Specific gravity decrease, Occult blood Na decrease, K decrease, Cl decrease + Hematology: RBC …): 100 mg/kg-day
- NOAEL (chronic, duration: 91 days, gavage, M, Sprague-Dawley, Deaths + Urinalysis: Volume increase, Specific gravity decrease, Occult blood Na decrease, K decrease, Cl decrease + Hematology: RBC …): 100 mg/kg-day

SMILES: CCc1ccc(C)nc1 [5-Ethyl-2-methylpyridine]
- NOAEL (short-term, duration: 28 days, gavage, M/F, Sprague-Dawley, Body Weight Changes: decrease + Food Consumption: decrease + Blood Chemistry: BUN increase, CRE increase, AST increase + Relative Organ …): 30 mg/kg-day

SMILES: CCCCCc1ccc2c(c1)C(=O)c1ccccc1C2=O [9,10-Anthracenedione, 2-pentyl-]
- NOEL (short-term, duration: 28 days, gavage, F, Sprague-Dawley, Clinical Observation: Salivation (transient) + Hematology: RBC decrease, PT increase + Absolute Organ Weight: Liver increase + Relative …): 15 mg/kg-day

SMILES: NCCCCCCCCCCC(=O)O [11-Aminoundecanoic acid]
- NOEL (subchronic, duration: 13 weeks, diet, M/F, Fischer 344, Deaths + Histopathology: Kidney - mineralization Kidney - transitional-cell hyperplasia Kidney/renal pelvis - hyperplasia): < 864 mg/kg-day

SMILES: CC1(C)CC(=O)CC(C)(C)N1[O] [(2,2,6,6-Tetramethyl-4-oxopiperidin-1-yl)oxidanyl]
- NOEL (short-term, duration: 28 days, gavage, M/F, Clinical Observation: Salivation + Hematology: Trend of Anemia + Absolute Organ Weight: Spleen increase, Liver increase + Histopathology: …): 40 mg/kg-day

SMILES: BrC=Cc1ccccc1 [(2-Bromovinyl)benzene]
- NOEL (short-term, duration: 28 days, gavage, M/F, CD(SD), Deaths + Clinical Observation: Salivation + Urinalysis: Volume increase, Osmotic pressure decrease, Small epidermal cell + Blood Chemistry: …): 30 mg/kg-day

SMILES: C[C@H](CCc1ccccc1)NC[C@H](O)c1ccc(O)c(C(N)=O)c1.Cl [(R,R)-Dilevalol hydrochloride]
- NOEL (subchronic, duration: 90 days, gavage, M/F, Sprague-Dawley, Clinical Observation: Salivation + Body Weight Changes: body weight gain decrease + Urinalysis: Volume increase, Specific gravity decrease…): 60 mg/kg-day

SMILES: CC(=O)N(C)c1ccccc1 [Acetamide, N-methyl-N-phenyl-]
- NOEL (short-term, duration: 28 days, gavage, M/F, Sprague-Dawley, Deaths + Clinical Observation: Clonic convulsion Cyanosis Salivation Rearing decrease + Body Weight Changes: decrease + Food Consumption: …): < 20 mg/kg-day

SMILES: C=CCOC(C)=O [Allyl acetate]
- NOEL (subchronic, gavage, M/F, Fischer 344, Deaths + Body Weight Changes: decrease + Hematology: Hgb decrease, Plt increase, WBC increase + Blood Chemistry: TP decrease, Alb decrease, …): < 6 mg/kg-day
